Source: ChEMBL document CHEMBL1201862, “PubChem BioAssay data set” (2004)
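Step 1: Grow cells in 96-well plates. Step 2: Expose to compound for 48 hours at 5 concentrations. Step 3: Interpolate endpoints linearly; if unreached, use highest concentration. GI50 marks 50% less growth.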 Activity calls are given as the source filed them. No stated cut-off is given here; in the data, active = GI50 up to about 1.1 µM and inactive = higher.

Experiments:
Assay in all cases: inhibition of tumour cell growth, NCI panel, 48 h
[1] = tested on: NCI/ADR-RES
[2] = tested on: SF-539
[3] = tested on: RPMI-8226
[4] = tested on: MDA-MB-435
[5] = tested on: SF-295
[6] = tested on: HOP-92
[7] = tested on: PC-3
[8] = tested on: UO-31
[9] = tested on: RXF 393
[10] = tested on: LOX IMVI
[11] = tested on: MCF7
[12] = tested on: UACC-257
[13] = tested on: SW-620
[14] = tested on: SN12C
[15] = tested on: CAKI-1
[16] = tested on: OVCAR-3
[17] = tested on: NCI-H23
[18] = tested on: SR
[19] = tested on: SNB-19
[20] = tested on: NCI-H522
[21] = tested on: T47D
[22] = tested on: COLO 205
[23] = tested on: SK-MEL-5
[24] = tested on: CCRF-CEM
[25] = tested on: HL-60
[26] = tested on: OVCAR-8
[27] = tested on: HOP-62
[28] = tested on: A498
[29] = tested on: K562
[30] = tested on: DU-145
[31] = tested on: EKVX
[32] = tested on: HCT-15
[33] = tested on: MOLT-4
[34] = tested on: SK-MEL-28
[35] = tested on: OVCAR-5
[36] = tested on: SK-MEL-2
[37] = tested on: Malme-3M
[38] = tested on: UACC-62
[39] = tested on: KM12
[40] = tested on: ACHN
[41] = tested on: M14
[42] = tested on: OVCAR-4
[43] = tested on: HCT-116
[44] = tested on: BT-549
[45] = tested on: MDA-MB-231
[46] = tested on: SF-268
[47] = tested on: SK-OV-3
[48] = tested on: U-251
[49] = tested on: 786-0
[50] = tested on: NCI-H226
[51] = tested on: TK-10
[52] = tested on: MDA-N
[53] = tested on: SNB-75
[54] = tested on: A549
[55] = tested on: Hs-578T
[56] = tested on: HT-29
[57] = tested on: IGROV-1
[58] = tested on: NCI-H460
[59] = tested on: HCC 2998

## Brc1ccc2c3c1[C@@H]1O[C@@H]1c1cccc(c1-3)[C@@H]1O[C@H]21
[1]
  GI50: 17.4 µM (inactive)
[2]
  GI50: 2.32 µM (inactive)
[3]
  GI50: 13.1 µM (inactive)
[4]
  GI50: 15 µM (inactive)
[5]
  GI50: 19.2 µM (inactive)
[6]
  GI50: 20.9 µM (inactive)
[7]
  GI50: 23.6 µM (inactive)
[8]
  GI50: 15.4 µM (inactive)
[9]
  GI50: 17.1 µM (inactive)
[10]
  GI50: 2.21 µM (inactive)
[11]
  GI50: 9.08 µM (inactive)
[12]
  GI50: 28.4 µM (inactive)
[13]
  GI50: 14.5 µM (inactive)
[14]
  GI50: 17.3 µM (inactive)
[15]
  GI50: 13.1 µM (inactive)
[16]
  GI50: 19.9 µM (inactive)
[17]
  GI50: 16.3 µM (inactive)
[18]
  GI50: > 100 µM (inactive)
[19]
  GI50: 22.3 µM (inactive)
[20]
  GI50: 13.8 µM (inactive)
[21]
  GI50: 15.4 µM (inactive)
[22]
  GI50: 21.8 µM (inactive)
[23]
  GI50: 16.9 µM (inactive)
[24]
  GI50: 5.09 µM (inactive)
[25]
  GI50: 19.6 µM (inactive)
[26]
  GI50: 13.8 µM (inactive)
[27]
  GI50: 19.5 µM (inactive)
[28]
  GI50: 26.9 µM (inactive)
[29]
  GI50: > 39.9 µM (inactive)
[30]
  GI50: 24.9 µM (inactive)
[31]
  GI50: 19.6 µM (inactive)
[32]
  GI50: 18.6 µM
[33]
  GI50: > 53 µM (inactive)
[34]
  GI50: 17.6 µM (inactive)
[35]
  GI50: 17.6 µM (inactive)
[36]
  GI50: 23.6 µM (inactive)
[37]
  GI50: 18.6 µM (inactive)
[38]
  GI50: 17.2 µM (inactive)
[39]
  GI50: 16.9 µM (inactive)
[40]
  GI50: 22.1 µM (inactive)
[41]
  GI50: 14.5 µM (inactive)
[42]
  GI50: 17.9 µM (inactive)
[43]
  GI50: 13.8 µM (inactive)
[44]
  GI50: 21.1 µM (inactive)
[45]
  GI50: 27.4 µM (inactive)
[46]
  GI50: 24.2 µM (inactive)
[47]
  GI50: 27.5 µM (inactive)
[48]
  GI50: 17.6 µM (inactive)
[49]
  GI50: 16.5 µM (inactive)
[50]
  GI50: 39.7 µM (inactive)
[51]
  GI50: 41 µM (inactive)
[52]
  GI50: 17.6 µM (inactive)
[53]
  GI50: 19.8 µM (inactive)
[54]
  GI50: 26.1 µM (inactive)
[55]
  GI50: 29.9 µM (inactive)
[56]
  GI50: 17.6 µM (inactive)

## O=C(c1cccc(OCc2ccccc2)c1OCc1ccccc1)N1CCSC1=S
[1]
  GI50: 10.6 µM (inactive)
[2]
  GI50: 33.3 µM (inactive)
[3]
  GI50: 8.38 µM (inactive)
[4]
  GI50: 27.2 µM (inactive)
[57]
  GI50: 28.6 µM (inactive)
[5]
  GI50: 30 µM (inactive)
[6]
  GI50: 18.1 µM (inactive)
[7]
  GI50: 21 µM (inactive)
[8]
  GI50: 10.6 µM (inactive)
[10]
  GI50: 34.2 µM (inactive)
[11]
  GI50: 23 µM (inactive)
[12]
  GI50: 28.5 µM (inactive)
[13]
  GI50: 43.4 µM (inactive)
[14]
  GI50: 19.5 µM (inactive)
[15]
  GI50: 31 µM (inactive)
[16]
  GI50: 21.1 µM (inactive)
[17]
  GI50: 19.1 µM (inactive)
[18]
  GI50: 8.36 µM (inactive)
[19]
  GI50: > 46.6 µM (inactive)
[20]
  GI50: 12.3 µM (inactive)
[21]
  GI50: 5.66 µM (inactive)
[22]
  GI50: 12 µM (inactive)
[23]
  GI50: 14 µM (inactive)
[24]
  GI50: 5.05 µM (inactive)
[25]
  GI50: 5.92 µM (inactive)
[26]
  GI50: 21.8 µM (inactive)
[27]
  GI50: 27.2 µM (inactive)
[28]
  GI50: 16.5 µM (inactive)
[29]
  GI50: 9.35 µM (inactive)
[58]
  GI50: 28 µM (inactive)
[30]
  GI50: 28.1 µM (inactive)
[31]
  GI50: 37.8 µM (inactive)
[32]
  GI50: 23.2 µM
[33]
  GI50: 12.6 µM (inactive)
[34]
  GI50: 48.5 µM (inactive)
[35]
  GI50: 71.3 µM (inactive)
[36]
  GI50: 34.6 µM (inactive)
[37]
  GI50: 23.6 µM (inactive)
[38]
  GI50: 19.2 µM (inactive)
[39]
  GI50: 5.13 µM (inactive)
[40]
  GI50: 33.8 µM (inactive)
[41]
  GI50: 33.2 µM (inactive)
[42]
  GI50: 56.5 µM (inactive)
[43]
  GI50: 21.4 µM (inactive)
[44]
  GI50: 29.5 µM (inactive)
[45]
  GI50: 19.8 µM (inactive)
[46]
  GI50: 11.9 µM (inactive)
[47]
  GI50: 30.1 µM (inactive)
[48]
  GI50: 29.1 µM (inactive)
[49]
  GI50: 42.8 µM (inactive)
[50]
  GI50: 23.8 µM (inactive)
[51]
  GI50: 56.5 µM (inactive)
[52]
  GI50: 27.9 µM (inactive)
[53]
  GI50: 5.64 µM (inactive)
[59]
  GI50: 28 µM (inactive)
[54]
  GI50: 23.7 µM (inactive)
[55]
  GI50: 2.29 µM (inactive)
[56]
  GI50: 25.2 µM (inactive)
